For 69 molecules, IC50 results are on record in PubChem BioAssay AID1985 (Southern Research Specialized Biocontainment Screening …, 2009).

SMILES strings stand for the structures.

This assay relates to S. Typhi PhoP-promoter GFP reporter, fluorescence, 4 h. Put plainly: PhoP regulon inhibitor project modified counter assay, GFP fluorescence readout, dose response (AID 1985).
Usually IC50 stands for the concentration that gives 50% inhibition. With `CN(C)CCCn1c(SCC(=O)N2c3ccccc3Sc3ccccc32)nc2ccccc2c1=O`, the IC50 is 145 µM. Regarding `CC(=O)NC(=S)NNC(=O)c1ccc(Br)cc1`, the IC50 was 33.8 µM. The same measure for `O=C(NC(CO)Cc1ccc([N+](=O)[O-])cc1)C(Cl)Cl` (centres undefined): 4.59 µM; for `CCCCCCC[N+](CC)(CC)CCCCc1ccc(Cl)cc1`: 80 µM; for `O=C(Nc1cccc([N+](=O)[O-])c1)Nc1cccs1`: 45.6 µM. Regarding `CC(=O)NNC(=S)NC(=O)c1ccccc1`, the IC50 is 22.7 µM. Consider `O=C(CC(=O)c1c(F)cccc1Cl)c1ccccc1O`, for which the IC50 is 41.4 µM. As to `C/C(=C\C(=O)OCCCCCCCCC(=O)O)C[C@@H]1OC[C@H](C[C@@H]2O[C@H]2[C@@H](C)[C@H](C)O)[C@@H](O)[C@H]1O`, the half-inhibitory concentration (IC50) was 17.5 µM. The same measure for `CCCCCc1ccc(OCCCC[n+]2ccccc2)c(CCCCC)c1`: 74.5 µM; for `COc1ccc(/C=C/c2cc[n+](C(=O)Cc3ccccc3)cc2)cc1`: 107 µM. Turning to `CCCCCCCCCCOC(=O)C[N+](C)(C)CC1CCCCC1O` (centres undefined), the IC50 was 65 µM. Next, `Cc1cccc2c1Sc1ccc(Cl)cc1CC2N1CCNCC1` (centres undefined): 32.7 µM; `COc1ccc(C(=O)CCN2CCc3cc(OC)c(OC)cc3C2)cc1`: 122 µM; `C#CCOCCOCCOCCNc1nc(N2CCN(C(=O)CCCCCCCCCCNC(=O)[C@H](CCCCN)n3cc(C)nn3)CC2)nc(N2CCN(C(=O)CCCCCCCCCCNC(=O)[C@@H]([C@H](C)CC)n3cc(CCCCCN)nn3)CC2)n1`: 79 µM.

On to `C=CC1=C(C(=O)O)N2C(=O)[C@@H](NC(=O)/C(=N\O)c3csc(N)n3)[C@H]2SC1` (stereo in doubt), for which the IC50 is 34.6 µM.

For the molecule `O=C(Nc1nnc(-c2cccs2)o1)c1cccc(Oc2ccccc2)c1`, the IC50 was 39.9 µM. Take `O=C(Oc1c(Br)cc([N+](=O)[O-])cc1Br)c1cccnc1`: the IC50 is 46.5 µM. With `O=C(CSc1nnc(-c2cccnc2)n1Cc1ccco1)c1ccc2ccccc2c1`, the IC50 was less than 0.23 µM. Next, `CCC(O)(CC)C(=O)N/N=C/c1cc(Br)cc(Br)c1O`: 60.9 µM; `O=C1C(SCCO)=C(SCCO)C(=O)c2ccccc21`: 122 µM. Next, `CCCCCCCCNc1ncnc2ccccc12`: 35.8 µM; `O=Nc1c(O)c2ccccc2c2ccccc12`: 24.6 µM; `C#CCOCCOCCOCCNc1nc(N2CCN(C(=O)CCCCCCCCCCNC(=O)[C@H](CCCCN)n3cc(CCO)nn3)CC2)nc(N2CCN(C(=O)CCCCCCCCCCNC(=O)[C@H](CCCN=C(N)N)n3cc(C[C@@H](C)CC)nn3)CC2)n1`: 56.8 µM.

With `Cc1cc(C2CCCCC2)n(O)c(=O)c1`, the IC50 is 20.9 µM. Consider `O=C(Nc1nnc(C(F)(F)F)s1)c1ccc(Br)s1`, for which the IC50 is 66.8 µM. The same measure for `C#CCOCCOCCOCCNc1nc(N2CCN(C(=O)CCCCCCCCCCNC(=O)[C@H](CCCCN)n3cc(C[C@@H](C)CC)nn3)CC2)nc(N2CCN(C(=O)CCCCCCCCCCNC(=O)[C@H](CCCN=C(N)N)n3cc(C[C@@H](C)CC)nn3)CC2)n1`: 68.2 µM; for `CNC(=S)N1CCN(c2c(F)cc3c(=O)c(C(=O)O)cn(C4CC4)c3c2OC)CC1C` (centres undefined): 8.49 µM; for `Cc1cc(Br)ccc1OCCCCNCCO`: 61.8 µM. As to `Cc1[nH]cnc1C(=O)N/N=C/c1ccc([N+](=O)[O-])s1`, the IC50 was 20.6 µM. Take `N/C(=N\OS(=O)(=O)c1ccccc1)c1cccnc1`: the IC50 is 9.86 µM.

Take `Oc1[nH]c2ccc(Br)cc2c1N=NC(=S)N1CCOCC1`: the IC50 is 47.3 µM. `O=c1cc(-c2ccccc2)nc2nc(-c3ccco3)[nH]n12`: the IC50 is 139 µM. The same measure for `N=c1n(CCN2CCCCC2)c2ccccc2n1CC(O)c1ccc(Cl)c(Cl)c1` (centres undefined): 64.1 µM; for `CCc1ccc2c(c1)Sc1ccccc1CC2N1CCN(C)CC1` (centres undefined): 76.8 µM; for `O=C1OCC(CO)(CO)N=C1NNc1ccc(Cl)c(Cl)c1`: 26.1 µM. As to `O=[N+]([O-])c1cc(/C=N/Nc2nc3ccccc3[nH]2)c(O)cc1O`, the IC50 is 24.8 µM. Consider `NC1=NC[C@H](c2ccccc2)N1CCc1cc(C(F)(F)F)cc(C(F)(F)F)c1`, for which the IC50 was 55.9 µM. On to `[O-][n+]1c2ccccc2cc2ccccc21`, for which the IC50 is 88 µM.

Turning to `Cc1cccc(NC2=NC3(CCCCC3)N=C(N)N2)c1`, the IC50 was 88.4 µM. As for `O=C1c2ccccc2C2=Nc3ccccc3SC(c3ccccc3F)C12` (centres undefined), the IC50 was 21 µM. For the molecule `CCOC(=O)C1Nc2c(F)cc(C)cc2C2c3ccccc3CC12` (centres undefined), the IC50 was 136 µM.

Consider `CC1CC(=O)c2c(cc3c(-c4c(O)cc(O)c5c(O)c6c(cc45)OC(C)CC6=O)c(O)cc(O)c3c2O)O1` (centres undefined), for which the IC50 is 27 µM. On to `Nc1ncncc1-c1ccc(Cl)cc1`, for which the IC50 was 131 µM. `Cc1ccc(S(=O)(=O)NNc2ccccc2)c(C)c1`: the IC50 is 117 µM.

`CN1CCN(c2c(F)cc3c(=O)c(C(=O)O)cn4c3c2OCN4C)CC1`: the IC50 is less than 0.23 µM.

Regarding `Nc1nc(Nc2cccc(F)c2)nc2ccccc12`, the IC50 was 54 µM. Consider `Cc1ccc2c(c1)N/C(=C(\C=C(/Cl)[N+](=O)[O-])[N+](=O)[O-])N2`, for which the IC50 was 81.1 µM.

For `Oc1ccc(C[C@@H]2CNCCN2CCCCC2CCCCC2)cc1`, the IC50 was 74.3 µM. As for `O=C(Nc1csc(Cl)c1)c1ccccc1`, the IC50 was 43.6 µM. Take `CCN(CC(=O)NC(C)(C)C)C(=O)COc1c(Cl)cc(Cl)c2ccc(C)nc12`: the IC50 was 43.5 µM. The same measure for `C(=N\Nc1ccccn1)/c1cccnc1`: 37.5 µM. For the molecule `S=C(Nc1ccc(Cl)c(Cl)c1)NC1CCN(Cc2ccccc2)CC1`, the IC50 is 38 µM. As to `Cc1ccc(S(=O)(=O)CCC(=O)c2ccc(O)cc2O)cc1`, the IC50 is 69.1 µM. Regarding `O=C(N/N=C/c1sc2ccccc2c1O)c1cccc2ccccc12`, the 50% inhibitory concentration (IC50) is 26.7 µM. The same measure for `Clc1cccc(/C=N\Nc2nccs2)c1`: 58.9 µM. Next, `Cc1c(N2C(=O)/C(=C3\C(=O)N(CC(=O)O)c4ccccc43)SC2=S)c(=O)n(-c2ccccc2)n1C`: 91.6 µM; `O=C(NNC(=S)NC(=O)c1ccco1)c1ccc(F)cc1`: 96.8 µM; `O=C1c2cccc3cccc(c23)C(=O)C1(O)O`: 28.8 µM.

As to `C[C@H]1c2cccc(O)c2C(O)=C2C(=O)[C@]3(O)C(O)=C(C(N)=O)C(=O)[C@@H](N(C)C)C3[C@@H](O)C21` (some centres undefined), the IC50 is 1.19 µM.

For the molecule `N=c1c2c(n(Cc3ccc(Cl)cc3Cl)c3c1CCC3)CCCC2`, the IC50 is 80.7 µM. Take `Cc1ccc2oc(=O)c(/C=C(\O)c3ccccc3)nc2c1`: the IC50 is 46.7 µM.

In the case of `CN1CCN(C2Cc3ccc(Cl)cc3Sc3ccc(F)cc32)CC1` (centres undefined), the IC50 was 39.6 µM.

With `Clc1cc(Br)ccc1OCCCNCc1ccccc1`, the IC50 was 45.5 µM.

Consider `O=C1C(Cl)=C(NCc2cccnc2)C(=O)c2ccccc21`, for which the IC50 is 41.6 µM. Next, `CCN1CCCC1CNC(=O)C1CCN(Cc2nc(-c3cccc(Br)c3)oc2C)CC1` (centres undefined): 143 µM. As to `CCN1/C(=C/C=C/C=C/c2sc3ccccc3[n+]2CC)Sc2ccccc21`, the IC50 is 30.9 µM. As for `NC1CCN(c2nc3c(cc2F)c(=O)c(C(=O)O)cn3-c2ccc(F)cc2F)C1` (centres undefined), the concentration for half-maximal inhibition (IC50) is less than 0.23 µM. Consider `Cc1ccc(OCc2nnc(NC(=O)c3cccnc3)s2)cc1`, for which the IC50 was 13.9 µM.

`Nc1nc(Nc2ccc(Cl)cc2)nc2ccccc12`: the IC50 is 33 µM.
